Laboratory results taken from patent publication US20050203079A1, “Compounds having affinity at 5ht2C receptor and use thereof in therapy” (GLAXO GROUP LIMITED, priority 2002, published 2005).
Structures can show the parent of a compound that is named as a salt.

melting point [°C] | Structure (SMILES)
99 to 101 | COc1ccc(N2CC=C(c3cccc(Cl)c3)C2=O)cc1OCCN1CCC(C)CC1.Cl
207 to 209 | COc1ccc(N2CC=C(c3ccc(F)cc3)C2=O)cc1OCCN1CCCCC1 (as salt: hydrochloride)
